From patent US20240352396A1, “PE[…]-C[…] CULTURE INCUBATOR” (Northeastern University, priority 2023, published 2024) come the findings set out here.

The subject of data set [1] is MCF7 cultures. The following applies: MCF7 in 24-well plate, 5% O2 incubator, 5 mM sodium azide; rose from 3% O2 to the incubator setpoint; PBS-spiked cultures returned to 3% O2.
Experimental: (§1) MCF7 were seeded overnight in a 24-well plate and incubated at 5% O2 for 24 hours. […] Cells were incubated with 1:1000 live/dead dye (LIVE/DEAD Fixable Kit, Thermo Fisher Scientific) for 1 hour. Flow cytometry (Attune NxT, Thermo Fisher Scientific) of live singlets was used to determine the cell viability.
For data set [2], the system named is MCF7. The following applies: 5 mM NaN3, 6 hours, 5% O2.
Experimental: as §1

`[N-]=[N+]=[N-]` [sodium azide]: the “pericellular O2 tension” value in data set [1] is reported as 5 % O2. Besides, the MCF7 cell viability entry in data set [2] is given as “no significant change”.
